Reference: publication PMC4568520, “Interrogation of the intersubunit interface of the open Hv1 proton channel with a probe of allosteric coupling” (Scientific Reports, 2015)
Substitutions are numbered along the chain they refer to.

Tests used:
[1] = molecular target: T1, human Hv1 (wild type, dimeric) (Homo sapiens, UniProt Q96D96); assay: inside-out patch clamp, proton current inhibition, Hill fit; type: biochemical; conditions: wild-type dimer; open-channel block at +120 mV; pHi = pHo = 6.0; 22 °C; inhibitor on intracellular side
T1 construct: gene HVCN1; full-length human Hv1 homodimer, 273 residues; pGEMHE cRNA in Xenopus laevis oocytes, inside-out patches
T1 sequence (Q96D96 1-273): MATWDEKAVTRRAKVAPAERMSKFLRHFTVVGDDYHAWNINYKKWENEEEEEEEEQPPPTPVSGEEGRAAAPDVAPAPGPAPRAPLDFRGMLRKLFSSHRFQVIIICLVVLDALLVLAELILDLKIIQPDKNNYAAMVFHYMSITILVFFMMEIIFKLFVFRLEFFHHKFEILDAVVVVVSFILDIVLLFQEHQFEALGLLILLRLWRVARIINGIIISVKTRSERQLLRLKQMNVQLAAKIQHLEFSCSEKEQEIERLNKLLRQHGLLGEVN

[2] = molecular target: T1, human Hv1 (wild type, dimeric); assay: cell-based; parameters: species or system Xenopus oocytes; patch-clamp proton currents, Hill fit of current inhibition, +120 mV, pHi = pHo = 6.0; conditions: apparent Kd, Hill fit of current inhibition; read-out: Kd (µM) (±SE)
Text: Figure 1 Hv1 inhibition by guanidinothiazole derivatives. […] [2] 2-guanidino-benzothiazole (GBTA), [3] (5-trifluoromethyl-1,3-benzothiazol-2-yl)guanidine, [4] naphtho[1,2-d][1,3]thiazol-2-yl-guanidine, [5] (4-methyl-1,3-thiazol-2-yl)guanidine, [6] […] 1-[4-(4-chlorophenyl)-1,3-thiazol-2-yl]guanidine, [12] 1-[4-(3,4-dimethoxyphenyl)-1,3-thiazol-2-yl]guanidine. (b) Inhibition of human Hv1 activity by the indicated guanidinothiazoles and reference compound 2GBI (teal column). Hv1 proton currents were measured in inside out patches from Xenopus oocytes in response to depolarizations to +120 mV from a holding potential of −80 mV. Each inhibitor was added to the bath solution at a concentration of 200 μM. pHi = pHo = 6.0. Data are means ± S.E.M. (n ≥ 4). (c) Concentration dependences of inhibition of human Hv1 by compounds [2], [3], [6], and [11]. […] Apparent dissociation constants (Kd) for the different combinations of channel and inhibitor (Supplementary Table 1) were determined by fitting the concentration dependences of inhibition (average %inhib values) with the Hill equation: Figure 6 Open-state coupling is mediated by direct physical interaction between outer ends of S1 segments in the two subunits. […] Hill coefficients in inset histograms were determined from fits reported in Supplementary Figs 3 and 4. […]

[3] = molecular target: T2, D112E I127C+βME (Homo sapiens, UniProt Q96D96, D112E/I127C); assay: cell-based; parameters: species or system Xenopus oocytes; patch-clamp proton currents, Hill fit of current inhibition, +120 mV, pHi = pHo = 6.0; conditions: read-out: Kd (µM) (±SE)
T2 construct: gene HVCN1; Hv1 homodimer, cysteines reduced by 10 mM βME
T2 sequence (Q96D96 1-273 D112E/I127C): T1 sequence (Q96D96 1-273) with D112E, I127C
Method: (§1) [2] 2-guanidino-benzothiazole (GBTA), [3] (5-trifluoromethyl-1,3-benzothiazol-2-yl)guanidine, [4] naphtho[1,2-d][1,3]thiazol-2-yl-guanidine, [5] (4-methyl-1,3-thiazol-2-yl)guanidine, [6] […] 1-[4-(4-chlorophenyl)-1,3-thiazol-2-yl]guanidine, [12] 1-[4-(3,4-dimethoxyphenyl)-1,3-thiazol-2-yl]guanidine. […] Hv1 proton currents were measured in inside out patches from Xenopus oocytes in response to depolarizations to +120 mV from a holding potential of −80 mV. Each inhibitor was added to the bath solution at a concentration of 200 μM. pHi = pHo = 6.0. Data are means ± S.E.M. (n ≥ 4). […] (a) Schematics of mutant Hv1 dimers and linked dimers designed to study how intersubunit cysteine crosslinking affects GBTA binding cooperativity. […] Hill coefficients in inset histograms were determined from fits reported in Supplementary Figs 3 and 4.

[4] = molecular target: T3, I127C+βME (Homo sapiens, UniProt Q96D96, I127C); assay: cell-based; parameters: species or system Xenopus oocytes; patch-clamp proton currents, Hill fit of current inhibition, +120 mV, pHi = pHo = 6.0; conditions: read-out: Kd (µM) (±SE)
T3 construct: gene HVCN1; Hv1 homodimer, cysteines reduced by 10 mM βME
T3 sequence (Q96D96 1-273 I127C): T1 sequence (Q96D96 1-273) with I127C
Method: as §1

[5] = molecular target: T4, human Hv1 (wild type, dimeric) D123R (Homo sapiens, UniProt Q96D96, D123R); assay: cell-based; parameters: species or system Xenopus oocytes; patch-clamp proton currents, Hill fit of current inhibition, +120 mV, pHi = pHo = 6.0; conditions: apparent Kd, Hill fit of current inhibition; read-out: Kd (µM) (±SE)
T4 construct: gene HVCN1; full-length human Hv1 homodimer, 273 residues; pGEMHE cRNA in Xenopus laevis oocytes, inside-out patches
T4 sequence (Q96D96 1-273 D123R): T1 sequence (Q96D96 1-273) with D123R
Method: as §1

[6] = molecular target: T5, human Hv1 (wild type, dimeric) E119A (Homo sapiens, UniProt Q96D96, E119A); assay: cell-based; parameters: species or system Xenopus oocytes; patch-clamp proton currents, Hill fit of current inhibition, +120 mV, pHi = pHo = 6.0; conditions: apparent Kd, Hill fit of current inhibition; read-out: Kd (µM) (±SE)
T5 construct: gene HVCN1; full-length human Hv1 homodimer, 273 residues; pGEMHE cRNA in Xenopus laevis oocytes, inside-out patches
T5 sequence (Q96D96 1-273 E119A): T1 sequence (Q96D96 1-273) with E119A
Method: as §1

[7] = molecular target: T6, human Hv1 (wild type, dimeric) K125A (Homo sapiens, UniProt Q96D96, K125A); assay: cell-based; parameters: species or system Xenopus oocytes; patch-clamp proton currents, Hill fit of current inhibition, +120 mV, pHi = pHo = 6.0; conditions: apparent Kd, Hill fit of current inhibition; read-out: Kd (µM) (±SE)
T6 construct: gene HVCN1; full-length human Hv1 homodimer, 273 residues; pGEMHE cRNA in Xenopus laevis oocytes, inside-out patches
T6 sequence (Q96D96 1-273 K125A): T1 sequence (Q96D96 1-273) with K125A
Method: as §1

Kd [2]	Kd [3]	Kd [4]	Kd [5]	Kd [6]	Kd [7]	SMILES	apparent Kd [1]
						NC(N)=Nc1nc2ccccc2[nH]1 [compound 1, 2-Guanidino-benzimidazole]	inhibition of dimeric and monomeric Hv1 by compounds 2GBI and GBTA
90 ± 7 µM	191 ± 11 µM	44.3 ± 2.5 µM	35.8 ± 2.4 µM	40.5 ± 2.9 µM	86 ± 6 µM	N=C(N)Nc1nc2ccccc2s1 [compound 2, 2-guanidino-benzothiazole]	
